The results in this text go back to ChEMBL document CHEMBL6121007, “Design, synthesis and evaluation of pyrimidine derivatives as sedative-hypnotic agents” (Eur J Med Chem, 2025).

Each structure is given as a SMILES string. Active and inactive are the calls of the source. The rule behind the calls is not given here.

Common to all, as to format: functional, organism-based
The subject of experiment [1] is Mus musculus. Kind of experiment: Sedative-hypnotic activity in mouse assessed as decrease in number of square crossing at 50 mg/kg, ip administrated as single dose and measured after 30 mins by open field test.
Experiment [2] concerns Mus musculus. Kind of experiment: Sedative-hypnotic activity in mouse assessed as reduction in grip strength score at 50 mg/kg, ip administrated as single dose and measured after 30 mins by grip strength test.
In experiment [3] the test system is Mus musculus. Kind of experiment: Sedative-hypnotic activity in mouse assessed as increase in latency time of first step out of center square at 5 mg/kg, ip administrated as single dose and measured after 30 mins by open field test.

With `CCn1c2ccccc2c2cc(Nc3ccnc(Nc4ccc(N5CCCCC5)cc4)n3)ccc21`, the result in experiment [1] and in experiment [2] was Active.
As to `CCn1c2ccccc2c2cc(Nc3ccnc(Nc4ccc(CC(C)C)cc4)n3)ccc21`, the outcome in experiment [1] and in experiment [2] was Active.
For the compound `CCn1c2ccccc2c2cc(Nc3ccnc(Nc4ccc(F)c(C)c4)n3)ccc21`, the outcome in experiment [1] and in experiment [2] was Active.
With `COc1cc(Nc2nccc(Nc3ccc4sc(C)nc4c3)n2)ccc1O`, the result in experiment [1] and in experiment [2] was Active.
Consider `CCn1c2ccccc2c2cc(Nc3ccnc(Nc4ccc5[nH]c(C)cc5c4F)n3)ccc21`, for which the result in experiment [1] and in experiment [2] was Active.
For `CCn1c2ccccc2c2cc(Nc3ccnc(Nc4cc(C)cc(F)c4)n3)ccc21`, the outcome in experiment [1] and in experiment [2] was Active.
Take `CCn1c2ccccc2c2cc(Nc3ccnc(Nc4cc(OC)cc(OC)c4)n3)ccc21`: the result in experiment [1] and in experiment [2] was Active.
On to `CN1C(=O)CN=C(c2ccccc2)c2cc(Cl)ccc21`, for which the result in experiment [3] was inactive.
With `Cc1nc2cc(Nc3ccnc(Nc4ccc(F)c(C)c4)n3)ccc2s1`, the outcome in experiment [1] and in experiment [2] was Active.
For the compound `CCn1c2ccccc2c2cc(Nc3ccnc(Nc4ccc5sc(C)nc5c4)n3)ccc21`, the outcome in experiment [1] and in experiment [2] was Active.
As for `CCn1c2ccccc2c2cc(Nc3ccnc(Nc4ccc5c(cnn5C)c4)n3)ccc21`, the outcome in experiment [1] and in experiment [2] was Active.
In the case of `Cc1cc2c(F)c(Nc3nccc(Nc4ccc5sc(C)nc5c4)n3)ccc2[nH]1`, the result in experiment [1] and in experiment [2] was Active.
Consider `CCn1c2ccccc2c2cc(Nc3ccnc(Nc4ccc5nc(C)[nH]c5c4)n3)ccc21`, for which the result in experiment [1] and in experiment [2] was Active.
As to `CCc1ccc(Nc2nccc(Nc3ccc4c(c3)c3ccccc3n4CC)n2)cc1`, the outcome in experiment [1] and in experiment [2] was Active.
Take `Cc1nc2cc(Nc3ccnc(Nc4ccc5c(cnn5C)c4)n3)ccc2s1`: the result in experiment [1] and in experiment [2] was Active.
`CCn1c2ccccc2c2cc(Nc3ccnc(Nc4ccc(C)cc4)n3)ccc21`: the outcome in experiment [1] and in experiment [2] was Active.
For `COC(=O)c1ccc(Nc2nccc(Nc3ccc4sc(C)nc4c3)n2)cc1OC`, the outcome in experiment [1] was inactive. In addition, the outcome in experiment [2] was Active.
On to `Cc1nc2ccc(Nc3nccc(Nc4ccc5sc(C)nc5c4)n3)cc2[nH]1`, for which the result in experiment [1] and in experiment [2] was Active.
Turning to `CCn1c2ccccc2c2cc(Nc3nccc(Nc4ccc5sc(C)nc5c4)n3)ccc21`, the outcome in experiment [1] and in experiment [2] was Active.
On to `CCn1c2ccccc2c2cc(Nc3ccnc(Nc4ccc(C(C)C)cc4)n3)ccc21`, for which the outcome in experiment [1] and in experiment [2] was Active.
Turning to `CCn1c2ccccc2c2cc(Nc3ccnc(Nc4ccc(C(F)(F)F)cc4)n3)ccc21`, the result in experiment [1] and in experiment [2] was Active.
On to `CCn1cc(Nc2nccc(Nc3ccc4c(c3)c3ccccc3n4CC)n2)cn1`, for which the result in experiment [1] and in experiment [2] was Active.
With `Cc1nc2cc(Nc3ccnc(Nc4ccc5sc(C)nc5c4)n3)ccc2s1`, the result in experiment [1] and in experiment [2] was Active.
With `CCn1c2ccccc2c2cc(Nc3ccnc(Nc4ccc5c(c4)c4ccccc4n5CC)n3)ccc21`, the result in experiment [1] and in experiment [2] was Active.
Turning to `CCn1c2ccccc2c2cc(Nc3ccnc(Nc4cnn(C)c4)n3)ccc21`, the result in experiment [1] and in experiment [2] was Active.
